In PubChem BioAssay AID248 (DTP/NCI, 2004):
“And” between values parts separate entries of the source, which are not always exact repeats. Equal entries are not always repeated. Toxic doses and inconclusive results are not listed. Rule as the data show it: active = T/C of 150% or more; inactive = T/C below 125%.

Tested on: L1210 leukemia ip in BDF1 mice, survival T/C
Test: NCI In Vivo Anticancer Drug Screen. Data for tumor model L1210 Leukemia (intraperitoneal) in B6D2F1 (BDF1) mice
Settings: endpoint: mean survival time, higher = longer survival
Procedure, shortened: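 Transplantable tumor model; survival measured in treated vs vehicle control mice. Value = treated/control.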

[1] = dose: 100.0 mg/kg/injection, schedule: Q04DX003 (ip), vehicle: Klucel (hydroxypropylcellulose) (HPC)
[2] = dose: 200.0 mg/kg/injection, schedule: Q04DX003 (ip), vehicle: Klucel (hydroxypropylcellulose) (HPC)
[3] = dose: 400.0 mg/kg/injection, schedule: Q04DX003 (ip), vehicle: Klucel (hydroxypropylcellulose) (HPC)
[4] = dose: 100.0 mg/kg/injection, schedule: Q01DX009 (ip), vehicle: saline
[5] = dose: 200.0 mg/kg/injection, schedule: Q01DX009 (ip), vehicle: saline
[6] = dose: 400.0 mg/kg/injection, schedule: Q01DX009 (ip), vehicle: saline
[7] = dose: 100.0 mg/kg/injection, schedule: Q01DX009 (ip), vehicle: Klucel (hydroxypropylcellulose) (HPC)
[8] = dose: 100.0 mg/kg/injection, schedule: Q04DX002 (ip), vehicle: Klucel (hydroxypropylcellulose) (HPC)
[9] = dose: 200.0 mg/kg/injection, schedule: Q01DX009 (ip), vehicle: Klucel (hydroxypropylcellulose) (HPC)
[10] = dose: 200.0 mg/kg/injection, schedule: Q04DX002 (ip), vehicle: Klucel (hydroxypropylcellulose) (HPC)
[11] = dose: 400.0 mg/kg/injection, schedule: Q01DX009 (ip), vehicle: Klucel (hydroxypropylcellulose) (HPC)
[12] = dose: 400.0 mg/kg/injection, schedule: Q04DX002 (ip), vehicle: Klucel (hydroxypropylcellulose) (HPC)
[13] = dose: 100.0 mg/kg/injection, schedule: Q04DX003 (ip), vehicle: saline with Tween-80
[14] = dose: 200.0 mg/kg/injection, schedule: Q04DX003 (ip), vehicle: saline with Tween-80
[15] = dose: 400.0 mg/kg/injection, schedule: Q04DX003 (ip), vehicle: saline with Tween-80
[16] = dose: 100.0 mg/kg/injection, schedule: Q01DX001 (ip), vehicle: saline with Tween-80
[17] = dose: 200.0 mg/kg/injection, schedule: Q01DX001 (ip), vehicle: saline with Tween-80
[18] = dose: 50.0 mg/kg/injection, schedule: Q01DX009 (ip), vehicle: Klucel (hydroxypropylcellulose) (HPC)

Measured: T/C

CN(C)c1ccc(/C=C2\SC(=S)N(c3ccccc3)C2=O)cc1
inactive: dose: 50.0 mg/kg/injection, schedule: Q01DX009 (ip), vehicle: saline with Tween-80 96 % of control | dose: 100.0 mg/kg/injection, schedule: Q01DX009 (ip), vehicle: saline with Tween-80 103 % of control | dose: 200.0 mg/kg/injection, schedule: Q01DX009 (ip), vehicle: saline with Tween-80 100 % of control

O=[N+]([O-])c1ccc(Oc2ccc(Cl)cc2)cc1
inactive: [1] 94 % of control | [2] 102 % of control | [3] 94 % of control

CC(=O)CC(=O)OCc1ccccc1
inactive: [4] 93 % of control | [5] 92 % of control | [6] 95 % of control

O=C(Nc1ccccc1F)Oc1ccc(F)cc1
inactive: dose: 100.0 mg/kg/injection, schedule: Q01DX001 (ip), vehicle: Klucel (hydroxypropylcellulose) (HPC) 97 % of control | [7] 102 % of control and 91 % of control | [8] 101 % of control and 89 % of control | dose: 200.0 mg/kg/injection, schedule: Q01DX001 (ip), vehicle: Klucel (hydroxypropylcellulose) (HPC) 97 % of control | [9] 98 % of control and 109 % of control | [10] 96 % of control and 98 % of control | dose: 400.0 mg/kg/injection, schedule: Q01DX001 (ip), vehicle: Klucel (hydroxypropylcellulose) (HPC) 96 % of control | [11] 98 % of control and 107 % of control | [12] 101 % of control and 104 % of control

O=S(=O)(/N=C1C=C/C(=N\S(=O)(=O)c2ccccc2)c2ccccc2\1)c1ccccc1
inactive: [13] 88 % of control | [14] 90 % of control | [15] 93 % of control

Nc1nc(Cc2cccc3ccccc23)nc(Cc2cccc3ccccc23)n1
inactive: [1] 87 % of control | [2] 92 % of control

O=COCCc1ccccc1
inactive: [7] 102 % of control | [9] 102 % of control | [11] 97 % of control

COc1cccc(/C=N\N=C\c2cccc(OC)c2O)c1O
inactive: [16] 91 % of control | [17] 103 % of control and 105 % of control | dose: 400.0 mg/kg/injection, schedule: Q01DX001 (ip), vehicle: saline with Tween-80 94 % of control and 95 % of control

CC1(C)CC(OP(=O)(Cl)OC2CC(C)(C)N(O)C(C)(C)C2)CC(C)(C)N1O
inactive: dose: 100.0 mg/kg/injection, schedule: Q01DX001 (ip), vehicle: water 97 % of control | dose: 200.0 mg/kg/injection, schedule: Q01DX001 (ip), vehicle: water 94 % of control | dose: 400.0 mg/kg/injection, schedule: Q01DX001 (ip), vehicle: water 94 % of control

COc1ccc2c(c1)CC1(CC2)NCC(=O)NC1=O (stereo unspecified)
inactive: dose: 100.0 mg/kg/injection, schedule: Q01DX001 (ip), vehicle: carboxymethylcellulose (CMC) 97 % of control | dose: 200.0 mg/kg/injection, schedule: Q01DX001 (ip), vehicle: carboxymethylcellulose (CMC) 97 % of control | dose: 400.0 mg/kg/injection, schedule: Q01DX001 (ip), vehicle: carboxymethylcellulose (CMC) 115 % of control

O=[N+]([O-])c1ccc2c(c1)N(CCCN1CCN(CCO)CC1)c1ccccc1S2
inactive: dose: 12.5 mg/kg/injection, schedule: Q04DX003 (ip), vehicle: saline 111 % of control | dose: 25.0 mg/kg/injection, schedule: Q04DX003 (ip), vehicle: saline 122 % of control

c1ccc2c(c1)C1C3CCC(C3)C21 (stereo unspecified)
inactive: [13] 98 % of control | [15] 98 % of control

CCOCc1cccc(C(=O)NCCCc2c(-c3ccccc3)nc(N)[nH]c2=O)c1
inactive: dose: 36.2 mg/kg/injection, schedule: Q01DX001 (ip), vehicle: Klucel (hydroxypropylcellulose) (HPC) 94 % of control | dose: 62.5 mg/kg/injection, schedule: Q01DX001 (ip), vehicle: Klucel (hydroxypropylcellulose) (HPC) 105 % of control | dose: 125.0 mg/kg/injection, schedule: Q01DX001 (ip), vehicle: Klucel (hydroxypropylcellulose) (HPC) 98 % of control

CN(C)CCC1(c2ccccc2)C=Cc2ccccc21 (stereo unspecified)
inactive: dose: 3.12 mg/kg/injection, schedule: Q01DX009 (ip), vehicle: saline 93 % of control | dose: 6.25 mg/kg/injection, schedule: Q01DX009 (ip), vehicle: saline 97 % of control | dose: 12.5 mg/kg/injection, schedule: Q01DX009 (ip), vehicle: saline 101 % of control | dose: 25.0 mg/kg/injection, schedule: Q01DX009 (ip), vehicle: saline 100 % of control | dose: 50.0 mg/kg/injection, schedule: Q01DX009 (ip), vehicle: saline 95 % of control

CC1CCCCC1=C(C#N)C#N (stereo unspecified)
inactive: dose: 5.0 mg/kg/injection, schedule: Q01DX001 (ip), vehicle: saline 97 % of control | dose: 10.0 mg/kg/injection, schedule: Q01DX001 (ip), vehicle: saline 121 % of control | dose: 20.0 mg/kg/injection, schedule: Q01DX001 (ip), vehicle: saline 94 % of control | dose: 40.0 mg/kg/injection, schedule: Q01DX001 (ip), vehicle: saline 103 % of control

O=Cc1ccc(C=O)c(Cl)c1
inactive: dose: 100.0 mg/kg/injection, schedule: Q01DX009 (ip), vehicle: saline sonified 100 % of control | [1] 100 % of control | dose: 200.0 mg/kg/injection, schedule: Q01DX009 (ip), vehicle: saline sonified 87 % of control | [2] 95 % of control | dose: 400.0 mg/kg/injection, schedule: Q01DX009 (ip), vehicle: saline sonified 94 % of control | [3] 103 % of control

O=C(N/N=C/c1ccc(O)cc1O)c1cccc2ccccc12
inactive: dose: 100.0 mg/kg/injection, schedule: Q01DX001 (ip), vehicle: saline 92 % of control | dose: 200.0 mg/kg/injection, schedule: Q01DX001 (ip), vehicle: saline 100 % of control | dose: 400.0 mg/kg/injection, schedule: Q01DX001 (ip), vehicle: saline 92 % of control

CCCCNC(=O)c1cccc2c1-c1ccccc1C2=O
inactive: dose: 100.0 mg/kg/injection, schedule: Q01DX001 (ip), vehicle: other 88 % of control | dose: 200.0 mg/kg/injection, schedule: Q01DX001 (ip), vehicle: other 88 % of control | dose: 400.0 mg/kg/injection, schedule: Q01DX001 (ip), vehicle: other 96 % of control

CN(C)C(=O)C(OCc1ccccc1)C(OCc1ccccc1)C(OCc1ccccc1)C(O)COCc1ccccc1 (stereo unspecified)
inactive: [18] 88 % of control | [7] 96 % of control | [9] 100 % of control

NC(=O)NC(NC(N)=O)C(Cl)(Cl)Cl
inactive: [4] 101 % of control | [13] 100 % of control | [5] 102 % of control | [14] 100 % of control | [6] 102 % of control | [15] 100 % of control

CN(C)c1ccc(N=Nc2ccncc2)cc1
inactive: dose: 25.0 mg/kg/injection, schedule: Q01DX009 (ip), vehicle: Klucel (hydroxypropylcellulose) (HPC) 98 % of control | [18] 98 % of control | [7] 94 % of control

Cc1ccc(CNC(=O)Nc2ccccc2Cl)c(C)c1
inactive: [8] 105 % of control | [10] 97 % of control | [12] 97 % of control

COc1ccc(-n2cnc3c(=O)[nH]c(N)nc32)cc1NC(=O)Nc1cccc(S(=O)(=O)F)c1
inactive: dose: 50.0 mg/kg/injection, schedule: Q01DX001 (ip), vehicle: saline with Tween-80 95 % of control | [16] 92 % of control | [17] 100 % of control
